From patent US11534441B2, “MAP4K1 inhibitors” (Blueprint Medicines Corporation, priority 2020, dated 2022)

What was measured:
[1] = target: MAP4K1 (HPK1) (Homo sapiens (Human), UniProt Q92918); experiment: MAP4K1 (HPK1) biochemical enzymatic activity, electrophoretic mobility shift (EZReader 2), ATP at APPKM (26 μM)
In short: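 Enzyme at 0.1-15 nM was incubated with 1.5 μM fluorescent peptide and ATP at the apparent Km (26 μM) in HEPES pH 7.5, MgCl2, DTT and Brij 35. The reaction ran at 25° C for 60-180 min with a 10-point, 4-fold compound series (1% DMSO) and was stopped with EDTA. Substrate and product peptides were resolved by microfluidic mobility shift, and their peak ratio gave activity.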

[2] = test system: expanded CD3+ T cells; experiment: T cell enhancement of cytokines: IL2 measurement (HTRF) in expanded CD3+ T cells stimulated with anti-CD3/anti-CD28; assay type: cell-based, human; settings: IL-2 measurement
Procedure: T cells are isolated from whole blood of healthy donors by immunomagnetic negative selection following manufacture's protocol (StemCell Technologies, human T cell isolation kit). Purity of isolated cells is assessed by flow cytometry and yields 95-98% CD3^+ T cells. For expansion of T cells, 1×10^6 cells/well are plated in serum free cell expansion media (ThermoFisher) containing 30 U of recombinant human IL2 (R&D) and stimulated with 25 ul of CD3/CD28 beads (Invitrogen) in 24 well plates for 3-4 days. T cells are then expanded in 175 cm flasks and maintained at a cell density of 1 to 2.5×10^6 cells/ml days by addition of ⅔ of fresh media every 2-3 days. After 10-14 days, cells are frozen in BamBanker freezing media (Thermo) and stored in liquid nitrogen.
For IL2 measurement, expanded CD3^+ T cells are dispensed at 100K cells/well (cultured in X-VIVO 10 Serum-free media) and are stimulated with plate-bound anti-CD3 and soluble anti-CD28 in the presence of vehicle or compound of the disclosure at various concentrations for 24 h. As outlined in the manufacturer's protocol (Cisbio), 16 μL of conditioned media is transferred to a white 384-well low volume plate. Following a 24 h incubation with the anti-IL2 antibodies, the homogenous time resolved fluorescence (HTRF) is measured.

[3] = Homo sapiens, T-cell, class designation
[4] = Homo sapiens, T-cell, numeric value

MAP4K1 (HPK1), sequence (Q92918 whole entry): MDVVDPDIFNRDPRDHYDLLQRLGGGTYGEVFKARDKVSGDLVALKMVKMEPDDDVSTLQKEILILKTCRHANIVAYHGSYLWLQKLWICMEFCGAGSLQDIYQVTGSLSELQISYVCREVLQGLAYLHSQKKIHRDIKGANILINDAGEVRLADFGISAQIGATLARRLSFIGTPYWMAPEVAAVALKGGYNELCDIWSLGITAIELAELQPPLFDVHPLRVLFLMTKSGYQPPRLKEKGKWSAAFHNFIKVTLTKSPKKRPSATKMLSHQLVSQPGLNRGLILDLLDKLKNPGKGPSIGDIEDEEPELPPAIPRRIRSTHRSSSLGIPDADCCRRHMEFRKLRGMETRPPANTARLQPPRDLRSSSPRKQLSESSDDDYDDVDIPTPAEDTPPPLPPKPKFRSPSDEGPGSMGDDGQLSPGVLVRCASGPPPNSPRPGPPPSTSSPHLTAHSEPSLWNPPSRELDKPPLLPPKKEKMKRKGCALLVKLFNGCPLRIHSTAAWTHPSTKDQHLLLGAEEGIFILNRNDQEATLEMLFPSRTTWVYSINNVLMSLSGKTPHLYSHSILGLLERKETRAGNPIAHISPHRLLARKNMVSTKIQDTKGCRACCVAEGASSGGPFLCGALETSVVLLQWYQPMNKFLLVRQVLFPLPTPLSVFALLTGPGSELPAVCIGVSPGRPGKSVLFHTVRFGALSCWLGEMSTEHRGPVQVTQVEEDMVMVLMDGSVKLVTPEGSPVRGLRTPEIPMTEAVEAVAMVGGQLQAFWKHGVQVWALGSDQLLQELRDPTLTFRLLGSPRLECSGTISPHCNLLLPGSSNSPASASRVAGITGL

SMILES	IC50 ([1]; class designation) [nM]	EC50 [2, 3] [nM]	EC50 [2, 4] [nM]	IC50 ([1]; numeric value) [nM]	EC50 ([2]; class designation) [nM]	EC50 ([2]; numeric value) [nM]
CC1(C)Cc2nc(Nc3cc4c(C(C)(C)N)cnc(OC5CCC5)c4cn3)ccc2C(=O)O1 [Compound 72, 2-((5-(2-Aminopropan-2-yl)-8-cyclobutoxy-2,7-naphthyridin-3-yl)amino)-7,7-dimethyl-7,8-dihydro-5H-pyrano[4,3-b]pyridin-5-one]	0.31 to 1	35.1 to 45	35.5			
CC[C@@](C)(N)c1cnc(OC2CC2)c2cnc(Nc3ccc4c(n3)[C@@H](C)[C@H](C)OC4=O)cc12 [Compound 80]	< 0.3			0.08	< 35	4.1
CC[C@](C)(N)c1cnc(OC2(C)CC2)c2cnc(Nc3ccc4c(n3)[C@@H](C)[C@H](C)OC4=O)cc12 [Compound 85]	< 0.3			0.22	35.1 to 45	36.1
CC[C@](C)(N)c1cnc(OC2(C)CC2)c2cnc(Nc3ccc4c(n3)[C@@H](C)C(C)(C)OC4=O)cc12 [Compound 87]	0.31 to 1			0.44	< 35	31.6
C[C@@H]1OC(=O)c2ccc(Nc3cc4c([C@@](C)(N)C5CC5)cnc(OC5(C)CC5)c4cn3)nc2[C@H]1C [Compound 88]	< 0.3			0.16	< 35	11.5
C[C@@H]1c2nc(Nc3cc4c([C@](C)(N)C5CC5)cnc(OC5(C)CC5)c4cn3)ccc2C(=O)OC1(C)C [Compound 91]	< 0.3			0.1	< 35	15.1
CC[C@](C)(N)c1cnc(OC2(C)CC2)c2cnc(Nc3ccc4c(n3)[C@@H](C)[C@@H](C)OC4=O)cc12 [Compound 92]	< 0.3			0.25	< 35	15.4
C[C@@H]1c2nc(Nc3cc4c([C@](C)(N)C5CC5)cnc(OC5(C)CC5)c4cn3)ccc2C(=O)O[C@@H]1C [Compound 94]	< 0.3			0.14	< 35	23.5
CC[C@@](C)(N)c1cnc(OC2CC2)c2cnc(Nc3ccc4c(n3)[C@@H](C)[C@@H](C)OC4=O)cc12 [Compound 96]	< 0.3	< 35	9.4			
COc1ncc([C@](C)(N)C2CC2)c2cc(Nc3ccc4c(n3)[C@@H](C)C(C)(C)OC4=O)ncc12 [Compound 101]	< 0.3			0.11	< 35	20.8
COc1ncc([C@@](C)(N)C2CC2)c2cc(Nc3ccc4c(n3)[C@@H](C)C(C)(C)OC4=O)ncc12 [Compound 102]	1.1 to 10			1.87	< 35	28.7
C[C@@H]1OC(=O)c2ccc(Nc3cc4c(C(C)(C)N)cnc(NC5CC5)c4cn3)nc2[C@H]1C [Compound 109]	< 0.3	< 35	9.8	0.21		
C[C@@H]1OC(=O)c2ccc(Nc3cc4c(C(C)(C)N)cnc(NC5CCC5)c4cn3)nc2[C@H]1C [Compound 124]	< 0.3	< 35	7.4	0.24		
CC[C@](C)(N)c1cnc(OC2CC2)c2cnc(Nc3ccc4c(n3)[C@@H](C)[C@H](C)OC4=O)cc12 [Compound 131]	0.31 to 1			0.46	35.1 to 45	35.2
CC[C@@](C)(N)c1cnc(OC2CC2)c2cnc(Nc3ccc4c(n3)C(C)(C)COC4=O)cc12 [Compound 136]	0.31 to 1			0.39	35.1 to 45	40.5
CC[C@H]1c2nc(Nc3cc4c(C(C)(C)N)cnc(OC5CC5)c4cn3)ccc2C(=O)O[C@H]1C [Compound 138]	< 0.3			0.27	< 35	13.8
C[C@@H]1OC(=O)c2ccc(Nc3cc4c(C(C)(C)N)cnc(OC5COC5)c4cn3)nc2[C@H]1C [Compound 141]	0.31 to 1	< 35	21.6	0.42		
CC[C@@](C)(N)c1cnc(OC2CC2)c2cnc(Nc3ccc4c(n3)[C@@H](C)C(C)(C)OC4=O)cc12 [Compound 156]	< 0.3			0.1	< 35	13.6
CC[C@](C)(N)c1cnc(OC2CC2)c2cnc(Nc3ccc4c(n3)C(C)(C)[C@@H](C)OC4=O)cc12 [Compound 157]	< 0.3			0.14	< 35	21.3
C[C@@H]1OC(=O)c2ccc(Nc3cc4c(C(C)(C)N)cnc(O[C@H]5CCOC5)c4cn3)nc2[C@H]1C [Compound 159]	0.31 to 1	< 35	27.4	0.39		

Next, values leading:

IC50 ([1]; class designation) [nM]	EC50 [2, 3] [nM]	EC50 [2, 4] [nM]	IC50 ([1]; numeric value) [nM]	EC50 ([2]; class designation) [nM]	EC50 ([2]; numeric value) [nM]	SMILES
< 0.3	< 35	23.7	0.22			CC1(C)Cc2nc(Nc3cc4c(C(C)(C)N)cnc(OCC(F)F)c4cn3)ccc2C(=O)O1 [Compound 73]
< 0.3	< 35	22.2	0.12			CC1(C)Cc2nc(Nc3cc4c([C@](C)(N)C5CC5)cnc(OC5CC5)c4cn3)ccc2C(=O)O1 [Compound 74, R-2-((5-(1-amino-1-cyclopropylethyl)-8-cyclopropoxy-2,7-naphthyridin-3-yl)amino)-7,7-dimethyl-7,8-dihydro-5H-pyrano[4,3-b]pyridin-5-one]
0.31 to 1	< 35	32.5	0.65			CC1(C)Cc2nc(Nc3cc4c(C(C)(C)N)cnc(OCC(F)(F)F)c4cn3)ccc2C(=O)O1 [Compound 77]
< 0.3	< 35	11.6	0.19			C[C@@H]1OC(=O)c2ccc(Nc3cc4c(C(C)(C)N)cnc(OCC(F)(F)F)c4cn3)nc2[C@H]1C [Compound 78]
< 0.3	< 35	20.8	0.16			C[C@@H]1OC(=O)c2ccc(Nc3cc4c(C(C)(C)N)cnc(OC5(C)CC5)c4cn3)nc2[C@H]1C [Compound 82]
< 0.3	< 35	28.7	0.19			C[C@@H]1c2nc(Nc3cc4c(C(C)(C)N)cnc(OC5(C)CC5)c4cn3)ccc2C(=O)OC1(C)C [Compound 83]
< 0.3	< 35	3.1	0.11			COc1ccc(C(C)(C)N)c2cc(Nc3ccc4c(n3)CC(C)(C)OC4=O)ncc12 [Compound 103]
1.1 to 10	45.1 to 55	50.6	2.09			CC(C)(N)c1cnc(OC2CC2)c2cnc(Nc3ccc4c(n3)C(C)(C)OC4=O)cc12 [Compound 105]
0.31 to 1			0.55	< 35	33.9	CC[C@@](C)(N)c1cnc(OC2CC2)c2cnc(Nc3ccc4c(n3)C(C)(C)OC4=O)cc12 [Compound 110]
> 10			16.8	> 55	2660	CC[C@](C)(N)c1cnc(OC2CC2)c2cnc(Nc3ccc4c(n3)C(C)(C)OC4=O)cc12 [Compound 111]
< 0.3	< 35	19.6	0.23			CC(C)(N)c1cnc(OC2CC2)c2cnc(Nc3ccc4c(n3)C(C)(C)COC4=O)cc12 [Compound 112]
0.31 to 1			0.58	< 35	32.7	CC[C@]1(C)OC(=O)c2ccc(Nc3cc4c(C(C)(C)N)cnc(OC5CC5)c4cn3)nc21 [Compound 113]
0.31 to 1			0.88	< 35	25.6	CC[C@@]1(C)OC(=O)c2ccc(Nc3cc4c(C(C)(C)N)cnc(OC5CC5)c4cn3)nc21 [Compound 114]
> 10	> 55	232	7.39			CC(C)(N)c1cnc(OCC(F)(F)F)c2cnc(Nc3ccnc(C(C)(C)F)n3)cc12 [Compound 115]
1.1 to 10	> 55	64.9	2.14			CC(C)(N)c1cnc(OCC(F)F)c2cnc(Nc3ccc4c(n3)C(C)(C)OC4=O)cc12 [Compound 116]
< 0.3	< 35	7.6	0.2			C[C@@H]1c2nc(Nc3cc4c(C(C)(C)N)cnc(NC5CC5)c4cn3)ccc2C(=O)OC1(C)C [Compound 123]
< 0.3			0.17	< 35	21	C[C@H]1OC(=O)c2ccc(Nc3cc4c(C(C)(C)N)cnc(OC5CC5)c4cn3)nc2C1(C)C [Compound 127]
1.1 to 10			5.86	45.1 to 55	53.8	CC[C@](C)(N)c1cnc(OC2CC2)c2cnc(Nc3ccc4c(n3)CC(C)(C)OC4=O)cc12 [Compound 133]
0.31 to 1	< 35	31.6	0.54			CC1(C)Cc2nc(Nc3cc4c(C(C)(C)N)cnc(OC5(C)CC5)c4cn3)ccc2C(=O)O1 [Compound 135]
